Bridge positions count the residues as written; N and C are the ends. Ends that are not written are not given here. Peptide text beside a SMILES is read from it. * marks the point of attachment. 5FAM = O=C1OC2(c3ccc(O)cc3Oc3cc(O)ccc32)c2ccc(C(=O)*)cc21

One assay addresses T1, H6NA3 (Homo sapiens, UniProt P06731).
T1 construct: H6NA3, consisting of a hexahistidine leader and the N and A3 domains of CEA, was used
T1 sequence (P06731 35-144 limits assumed): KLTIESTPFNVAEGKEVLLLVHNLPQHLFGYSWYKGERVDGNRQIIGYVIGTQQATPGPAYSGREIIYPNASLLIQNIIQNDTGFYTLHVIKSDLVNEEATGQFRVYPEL
T1 sequence (P06731 501-588 limits assumed): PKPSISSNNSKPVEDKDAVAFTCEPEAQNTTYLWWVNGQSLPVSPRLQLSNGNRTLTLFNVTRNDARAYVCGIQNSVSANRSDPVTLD
The experiment in a line: Fluorescence anisotropy direct binding to H6NA3 / NA3. As to the method:
Each peptide was also provided with a C-terminal amide-functional linker useful for immobilizing peptides to various chromatographic substrates: -Ala18-Pro19-Gly20-Gly-Glu-Gly-Gly-Gly-Ser-Lys-CONH2 (SEQ ID NO:28). […] Aliquots of each peptide were fluorescently labeled using NHS-fluorescein reacted with the ε-amino side group of the C-terminal lysine.
Dissociation constants were determined using fluorescence anisotropy, through direct binding measurements and competition experiments. In direct binding assays, the concentration of the fluorescein-labeled peptide is held constant and the concentration of H6NA3 is varied. In the competition experiment, the concentration of the fluorescein-labeled peptide and the H6NA3 target are held constant and the concentration of a competitor (cT84.66, unlabeled) is varied. The change in anisotropy is fit to the appropriate equation via nonlinear regression to obtain the apparent Kd.
Aliquots of each peptide were fluorescently labeled using NHS-fluorescein reacted with the ε-amino side group of the C-terminal lysine.
Dissociation constants were determined using fluorescence anisotropy, through direct binding measurements (see Example 6).
Peptides including the binding domain of the CEA binder Isolates were synthesized by solid-phase synthesis. Each peptide was also provided with a C-terminal amide-functional linker useful for immobilizing peptides to various chromatographic substrates: -Ala18-Pro19-Gly20-Gly-Glu-Gly-Gly-Gly-Ser-Lys-CONH2 (SEQ ID NO:28). […] Aliquots of each peptide were fluorescently labeled using NHS-fluorescein reacted with the ε-amino side group of the C-terminal lysine.
Dissociation constants were determined using fluorescence anisotropy, through direct binding measurements to either NA-3 or CEA in PBS with 0.01% TWEEN 20. […] Isolate 304A-12-H12, previously isolated from Lib2 and assayed for binding, was analyzed in parallel as a control. […] KD standard error values are calculated from the nonlinear regression (SIGMAPLOT, SPSS Science, Chicago, Ill.).

The target of a further assay is T2, NA3 (Homo sapiens, UniProt P06731).
T2 construct: H6NA3, consisting of a hexahistidine leader and the N and A3 domains of CEA, was used
T2 sequence (P06731 35-144 limits assumed): T1 sequence (P06731 35-144 limits assumed)
T2 sequence (P06731 501-588 limits assumed): T1 sequence (P06731 501-588 limits assumed)
The experiment in a line: Phage ELISA with varying amounts of NA3 per well (FIGS. 2, 4, 5). The following applies: FIG. 2; 100, 50, 10, 5, 1, 0 ng per well. The format is binding. As to the method:
The first bar for each sample represents wells each having 100 ng CEA. Successive bars represent 50 ng, 10 ng, 5 ng, 1 ng, and 0 ng CEA per well.
The first bar for each sample represents wells each having 30 ng NA3. Successive bars represent 10 ng, 3 ng, and 0 ng NA3 per well.
Several Isolates gave especially strong ELISA signals and these were tested further.
Several Isolates gave especially strong ELISA signals and these were tested further. […] Isolate 304A-12-H12 (designated DX306) was assayed in parallel as a basis for comparison.
(In an ELISA, binding on a coated surface is turned into a signal by an enzyme label.)

In another assay the target is T3, CEA (Homo sapiens, UniProt P06731).
T3 construct: purchased
T3 sequence (P06731 35-676): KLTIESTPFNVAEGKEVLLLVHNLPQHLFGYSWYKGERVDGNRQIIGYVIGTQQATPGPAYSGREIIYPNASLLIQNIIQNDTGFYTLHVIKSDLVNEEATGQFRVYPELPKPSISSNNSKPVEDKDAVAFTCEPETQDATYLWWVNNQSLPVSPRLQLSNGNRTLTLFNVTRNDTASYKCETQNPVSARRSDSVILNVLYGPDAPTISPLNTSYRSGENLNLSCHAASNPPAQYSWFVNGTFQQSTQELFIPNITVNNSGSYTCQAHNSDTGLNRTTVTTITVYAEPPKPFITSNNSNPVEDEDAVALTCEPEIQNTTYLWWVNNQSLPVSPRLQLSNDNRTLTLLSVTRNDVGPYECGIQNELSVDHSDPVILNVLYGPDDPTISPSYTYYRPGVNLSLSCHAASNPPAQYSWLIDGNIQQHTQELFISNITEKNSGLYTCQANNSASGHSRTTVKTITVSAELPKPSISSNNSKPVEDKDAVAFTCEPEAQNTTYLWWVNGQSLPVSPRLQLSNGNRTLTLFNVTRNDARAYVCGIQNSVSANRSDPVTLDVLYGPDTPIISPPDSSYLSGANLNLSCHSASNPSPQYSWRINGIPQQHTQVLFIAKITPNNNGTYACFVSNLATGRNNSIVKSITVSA
Kind of assay: Fluorescence anisotropy direct binding to CEA. The following applies: for binding to CEA (in words): compared with binding to NA3. As to the method: Dissociation constants were determined using fluorescence anisotropy, through direct binding measurements to either NA-3 or CEA in PBS with 0.01% TWEEN 20. In direct binding assays, the concentration of the fluorescein-labeled peptide is held constant and the concentration of NA3 is varied. In the competition experiment, the concentration of the fluorescein-labeled peptide and the NA3 target are held constant and the concentration of competitor peptide (from Isolate 12-H12) is varied. The change in anisotropy is fit to the appropriate equation via nonlinear regression to obtain the apparent Kd. Isolate 304A-12-H12, previously isolated from Lib2 and assayed for binding, was analyzed in parallel as a control. Replicate analyses were run for certain binders and are reported to confirm accuracy and precision of measurements. KD standard error values are calculated from the nonlinear regression (SIGMAPLOT, SPSS Science, Chicago, Ill.).

Consider `CC(C)C[C@H](NC(=O)[C@@H](NC(=O)[C@H](CC(=O)O)NC(=O)[C@@H]1CSSC[C@H](NC(=O)[C@@H](NC(=O)[C@H](Cc2c[nH]c3ccccc23)NC(=O)[C@H](CC(=O)O)NC(=O)[C@@H](N)CO)C(C)C)C(=O)N[C@@H](CCC(=O)O)C(=O)N[C@@H](Cc2ccc(O)cc2)C(=O)N[C@@H](Cc2ccccc2)C(=O)N[C@@H](CCCCN)C(=O)N[C@@H](CC(N)=O)C(=O)N[C@@H](CCC(N)=O)C(=O)N[C@@H](Cc2c[nH]c3ccccc23)C(=O)N[C@@H](Cc2ccccc2)C(=O)N1)[C@@H](C)O)C(=O)N[C@@H](C)C(=O)N1CCC[C@H]1C(=O)NCC(=O)NCC(=O)N[C@@H](CCC(=O)O)C(=O)NCC(=O)NCC(=O)NCC(=O)N[C@@H](CO)C(=O)N[C@@H](CCCCNC(=O)c1ccc2c(c1)C(=O)OC21c2ccc(O)cc2Oc2cc(O)ccc21)C(N)=O` [Hybrid H12/A12, DWVCEYFKNQWFCDTL], for which the “CEA binding characteristics compared with other isolates” value on H6NA3 (direct binding KD, Table 7) is “comparable to the Isolates obtained from the initial library screen”. For `CC(C)C[C@@H]1NC(=O)[C@H](CC(N)=O)NC(=O)[C@@H](NC(=O)[C@@H](NC(=O)[C@H](Cc2c[nH]c3ccccc23)NC(=O)[C@H](CC(=O)O)NC(=O)[C@@H](N)CO)C(C)C)CSSC[C@@H](C(=O)N[C@@H](CC(=O)O)C(=O)N[C@H](C(=O)N[C@@H](CC(C)C)C(=O)N[C@@H](C)C(=O)N2CCC[C@H]2C(=O)NCC(=O)NCC(=O)N[C@@H](CCC(=O)O)C(=O)NCC(=O)NCC(=O)NCC(=O)N[C@@H](CO)C(=O)N[C@@H](CCCCNC(=O)c2ccc3c(c2)C(=O)OC32c3ccc(O)cc3Oc3cc(O)ccc32)C(N)=O)[C@@H](C)O)NC(=O)[C@H](Cc2ccccc2)NC(=O)[C@H](Cc2c[nH]c3ccccc23)NC(=O)[C@H](CCC(N)=O)NC(=O)[C@H](CC(N)=O)NC(=O)[C@H](CCCCN)NC(=O)[C@H](Cc2ccccc2)NC1=O` [Isolate 304A-14-A12, DWVCNLFKNQWFCDTL], on NA3, the “phage ELISA binding profile to varying amounts of NA3” value (“phage ELISA binding profile” for short) is on record as “do not drop off so quickly”. In addition, on H6NA3 (from KD of Table 7 versus Table 3), the “increase in affinity compared to the Isolate G08 peptide” value is “several fold increase in affinity”. For `CC(C)C[C@H](NC(=O)[C@H](CO)NC(=O)[C@H](CC(N)=O)NC(=O)[C@@H]1CSSC[C@H](NC(=O)[C@@H](NC(=O)[C@H](Cc2c[nH]c3ccccc23)NC(=O)[C@H](CC(=O)O)NC(=O)[C@@H](N)CO)C(C)C)C(=O)N[C@@H](CCC(=O)O)C(=O)N[C@@H](Cc2c[nH]c3ccccc23)C(=O)N[C@@H](CC(C)C)C(=O)N[C@@H](CCCCN)C(=O)N2CCC[C@H]2C(=O)N[C@@H](CCC(N)=O)C(=O)N[C@@H](Cc2c[nH]c3ccccc23)C(=O)N[C@@H](Cc2ccc(O)cc2)C(=O)N1)C(=O)N[C@@H](C)C(=O)N1CCC[C@H]1C(=O)NCC(=O)NCC(=O)N[C@@H](CCC(=O)O)C(=O)NCC(=O)NCC(=O)NCC(=O)N[C@@H](CO)C(=O)N[C@@H](CCCCNC(=O)c1ccc2c(c1)C(=O)OC21c2ccc(O)cc2Oc2cc(O)ccc21)C(N)=O` [Isolate 315A-17-B12] (H-SDWVCEWLKPQWYCNSLAPGGEGGGSK(5FAM)-NH2; disulfide 5-14; N-terminus assumed), the “CEA KD (μM) direct binding” value on CEA (Table 10, commercial CEA, PBS with 0.01% TWEEN 20) is “(no binding)”. The “binding to CEA (in words)” value at CEA is recorded as “did not appear to bind CEA”.

Turning to `CC[C@H](C)[C@@H]1NC(=O)[C@H](Cc2ccccc2)NC(=O)[C@H](CCC(=O)O)NC(=O)[C@@H](NC(=O)[C@@H](NC(=O)[C@H](Cc2c[nH]c3ccccc23)NC(=O)[C@H](CC(=O)O)NC(=O)[C@@H](N)CO)C(C)C)CSSC[C@@H](C(=O)N[C@@H](CC(N)=O)C(=O)N[C@H](C(=O)N[C@@H](CC(C)C)C(=O)N[C@@H](C)C(=O)N2CCC[C@H]2C(=O)NCC(=O)NCC(=O)N[C@@H](CCC(=O)O)C(=O)NCC(=O)NCC(=O)NCC(=O)N[C@@H](CO)C(=O)N[C@@H](CCCCNC(=O)c2ccc3c(c2)C(=O)OC32c3ccc(O)cc3Oc3cc(O)ccc32)C(N)=O)C(C)C)NC(=O)[C@H](Cc2ccccc2)NC(=O)[C@H](Cc2c[nH]c3ccccc23)NC(=O)[C@H](CCC(N)=O)NC(=O)[C@H](CO)NC(=O)[C@H](CCCCN)NC1=O` [Isolate 315A-17-G08] (H-SDWVCEFIKSQWFCNVLAPGGEGGGSK(5FAM)-NH2; disulfide 5-14; N-terminus assumed), the “binding to CEA (in words)” value at CEA is recorded as “effectively bound CEA, but not as strongly as they bound NA3”.

For `CC[C@H](C)[C@H](NC(=O)[C@H](CC(N)=O)NC(=O)[C@@H]1CSSC[C@H](NC(=O)[C@@H](NC(=O)[C@H](Cc2c[nH]c3ccccc23)NC(=O)[C@H](CC(=O)O)NC(=O)[C@@H](N)CO)C(C)C)C(=O)N[C@@H](CCC(=O)O)C(=O)N[C@@H](Cc2ccccc2)C(=O)N[C@@H](Cc2ccccc2)C(=O)N[C@@H](CCCCN)C(=O)N[C@@H](CC(=O)O)C(=O)N[C@@H](CCC(N)=O)C(=O)N[C@@H](Cc2c[nH]c3ccccc23)C(=O)N[C@@H](Cc2ccccc2)C(=O)N1)C(=O)N[C@@H](CC(C)C)C(=O)N[C@@H](C)C(=O)N1CCC[C@H]1C(=O)NCC(=O)NCC(=O)N[C@@H](CCC(=O)O)C(=O)NCC(=O)NCC(=O)NCC(=O)N[C@@H](CO)C(=O)N[C@@H](CCCCNC(=O)c1ccc2c(c1)C(=O)OC21c2ccc(O)cc2Oc2cc(O)ccc21)C(N)=O` [Isolate 315A-18-E02] (H-SDWVCEFFKDQWFCNILAPGGEGGGSK(5FAM)-NH2; disulfide 5-14; N-terminus assumed), on CEA, the “binding to CEA (in words)” value is given as “effectively bound CEA, but not as strongly as they bound NA3”. With “DWICNLFKNQWFCGPL (CEA binding polypeptide) [Isolate 304A-15-E04]”, the “phage ELISA binding profile” value in the assay with NA3 was “at least as good as G08 and A07”.

For the compound “DWVCENKKDQWTCNLL (cysteine pairing not given here) [Isolate A07]”, the “phage ELISA binding profile” value with NA3 was “drops off very quickly as the amount of NA3 drops below 50 ng per well”.

Consider “DWVCNLFKNQWFCDVP (CEA binding polypeptide) [Isolate 304A-14-B02]”, for which the “phage ELISA binding profile” value in the assay with NA3 is “at least as good as G08 and A07”.

Regarding “NWVCNLFKNQWFCNSY (cysteine pairing not given here) [Isolate G08]”, in the assay with NA3, the “phage ELISA binding profile” value is reported as “drops off very quickly as the amount of NA3 drops below 50 ng per well”.

Values taken from patent US6919424B2, “Binding peptides for carcinoembryonic antigen (CEA)” (Dyax Corp., priority 2000, dated 2005).
